The values below come from patent US4988678A, “Combinations of FU and BVU as anti-adenocarcinoma agents” (priority 1987, dated 1991).

Data set [1] deals with herpes simplex virus type 1. The following applies: infections caused by herpes simplex virus type 1; cited from earlier work.
A further data set concerns Epstein-Barr virus. The following applies: infections caused by Epstein-Barr virus; cited from earlier work.
In the next data set the test system is varicella zoster virus. The following applies: infections caused by varicella zoster virus; cited from earlier work.
The conditions of data set [2]: human body, cited from earlier work.
The test system of another data set is replication of viruses. The following applies: BVU as such; cited from earlier work.
The conditions of data set [3]: cited from earlier work.
The subject of another data set is adenocarcinoma 755. The experiment in a line: Antitumor activity against subcutaneous adenocarcinoma 755 in BDF1 mice, oral FU or FU + BVDU (Example 1). The following applies: for T/C (percent tumor weight with regard to control) / tumor weight, Mean ± SD: p.o. daily, 5 days, day 12. How it is done: Groups of 6 male BDF1 -mice having a body weight of 21 to 23 g, were subcutaneously inoculated on day 0 with tumor cells of the type adenocarcinoma 755 at a dose of 5=10^5 cells per mouse. Thereupon, the compound FU (or a combination of FU and BVDU) was perorally administered in a predetermined daily dose during 5 consecutive days, starting 24 hours after the inoculation with tumor cells. On day 12, the tumor weight was determined and compared with the tumor weight in a non-treated control group.

A short description of data set [4]: Toxicity / deaths of mice in Example 1. The format is in vivo, male BDF1 mice.
The mark [5] stands for this setting: FU 30 mg/kg, p.o. daily, 5 days.

Take `O=c1[nH]c(=O)n([C@H]2C[C@H](O)[C@@H](CO)O2)cc1/C=C/Br` [BVDU, (E)-5-(2-bromovinyl)-2'-deoxyuridine]: the antiviral activity result (in data set [1]; in the data set with Epstein-Barr virus; in the data set on varicella zoster virus) was “active” each time. Further, in data set [2], the “conversion to BVU” value is given as “rapidly converted”.
In the case of `O=c1[nH]cc(/C=C/Br)c(=O)[nH]1` [BVU, 5-(2-bromovinyl)uracil], the “presence in the blood stream” value in data set [2] (after conversion from BVDU) is “remains present in the blood stream for a relatively long period”. Also, in the data set with replication of viruses, the “activity against replication of viruses” value was “inactive”.
Turning to `O=c1[nH]c(=O)n(C2CCCO2)cc1F` (stereo not shown) [FT, N1-(2'-tetrahydrofuryl)-5-fluorouracil], the “conversion to FU” value in data set [2] was “converted slowly to FU”.
A word on the LD50: it is the dose at which mortality reaches 50%. As for `O=c1[nH]cc(F)c(=O)[nH]1` [FU, 5-fluorouracil], in data set [3], the “degradation in the liver” value is “degraded rather rapidly”. Further, the “T/C (percent tumor weight with regard to control)” value in the data set on adenocarcinoma 755 (FU 5 mg/kg) amounted to 122%; in the data set on adenocarcinoma 755 (FU 10 mg/kg), 85%; in the data set on adenocarcinoma 755 (FU 20 mg/kg), 32%. Besides, the “tumor weight, Mean ± SD” value is on record as 2523 ± 389 mg in the data set with adenocarcinoma 755 (FU 5 mg/kg), 1759 ± 726 mg in the data set with adenocarcinoma 755 (FU 10 mg/kg) and 675 ± 355 mg with adenocarcinoma 755 (FU 20 mg/kg). Besides, the “therapeutic index (ratio of LD50 to ED50)” value in the data set with adenocarcinoma 755 (FU used alone) is 2. The ED50 in the data set with adenocarcinoma 755 (Mus musculus, po, 288 h, read-out: ED50 (dose causing a 50% reduction of T/C)) worked out at 15 mg/kg. The “died (animals of group)” value in data set [4] (setting [5]) is 3/6. In data set [4] (setting [5]), the “toxicity (in words)” value is on record as “Toxic”. In addition, the LD50 in data set [4] (mouse, in vivo, po, FU used alone, from the Table (doses in mg/kg), read-out: LD50 (50% lethal dose)) came to 30 mg/kg.
